# Assay results from patent publication US20240417405A1, “Substituted Spiro Derivatives” (Janssen Pharmaceutica NV, priority 2021, published 2024).
# pIC50: −log10 of the molar value.
# Legend:
# [1] = target: T1, menin/MLL (terbium chelate-labeled menin, FITC-MBM1 peptide) (Homo sapiens, UniProt O00255, T541A); experiment: Menin/MLL homogenous time-resolved fluorescence (HTRF) assay; assay type: binding; conditions: 30 min incubation
# T1 construct: Menin (a.a 1-610-6xhis tag)
# T1 sequence (O00255 with tags, fused parts or gaps T541A): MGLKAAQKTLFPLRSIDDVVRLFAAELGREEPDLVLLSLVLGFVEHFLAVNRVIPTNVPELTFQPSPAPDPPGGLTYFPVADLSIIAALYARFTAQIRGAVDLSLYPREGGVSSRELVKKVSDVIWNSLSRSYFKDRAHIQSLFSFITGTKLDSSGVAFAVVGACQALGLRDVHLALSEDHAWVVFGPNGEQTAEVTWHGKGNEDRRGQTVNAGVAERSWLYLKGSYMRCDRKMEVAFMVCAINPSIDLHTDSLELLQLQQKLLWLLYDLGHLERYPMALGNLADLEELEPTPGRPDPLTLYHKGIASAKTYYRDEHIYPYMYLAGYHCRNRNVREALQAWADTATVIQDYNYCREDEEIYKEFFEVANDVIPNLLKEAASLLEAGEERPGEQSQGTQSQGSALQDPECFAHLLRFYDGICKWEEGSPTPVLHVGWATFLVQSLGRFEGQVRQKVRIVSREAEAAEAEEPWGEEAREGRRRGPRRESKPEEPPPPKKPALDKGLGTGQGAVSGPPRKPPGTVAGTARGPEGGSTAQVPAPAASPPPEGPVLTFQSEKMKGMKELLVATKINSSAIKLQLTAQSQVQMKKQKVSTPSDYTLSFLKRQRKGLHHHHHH
# Method in brief: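 Read-out: TR-FRET ratio (FITC 520 nm / terbium 490 nm, ex. 337 nm) after 15 min with 75 nM FITC-MBM1 peptide. Test compound first sat 30 min with 200 pM Tb-menin 1-610-His, 0.5% DMSO, pH 7.5 Tris buffer. IC50 by Hill fit; values under 0.1 nM reported as 0.1 nM.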
# [2] = tested on: MOLM14 cells; experiment: Proliferation assay, spheroid-like growth, MOLM14 (MLL-AF9 rearranged); assay type: cell-based, human; conditions: Homo sapiens, MOLM-14, 192 h, 8 days, confluence as measure of spheroid size, read-out: spheroid assay_OneTime MOLM14 IC50
# Method in brief: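 MOLM14 (MLL-AF9) or KO-52 (MLL wildtype) cells were grown in ultra-low attachment round-bottom wells with compound (0.3% DMSO) for 8 days at 37 °C. Spheroid confluence was imaged live on day 8, normalized to DMSO and a high-dose reference/staurosporin control, and absolute IC50 fitted with variable slope.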
Compound,pIC50 [1],pIC50 [2]
"CC(C)[C@H]([C@H]1C[C@@H](Nc2ncnc3[nH]ncc23)C1)N1CC2(CCN(c3ncnnc3Oc3ccc(F)cc3-c3cncnc3C3CC3)C2)C1 (single isomer, unassigned) [Compound 413]",10.10,7.59
"CNC(=O)c1cnc(N[C@H]2C[C@@H]([C@@H](C(C)C)N3CC4(CCN(c5ncnnc5Oc5ccc(F)cc5-c5cnc(C)nc5C5CC5)C4)C3)C2)o1 (single isomer, unassigned) [Compound 416]",9.77,8.05
"CC(=O)Nc1cc(N[C@H]2C[C@@H]([C@@H](C(C)C)N3CC4(CCN(c5ncnnc5Oc5ccc(F)cc5-c5cncnc5C5CC5)C4)C3)C2)ncn1 (single isomer, unassigned) [Compound 418]",10.15,8.05
"COc1cc(N[C@H]2C[C@@H]([C@@H](C(C)C)N3CC4(CCN(c5ncnnc5Oc5ccc(F)cc5-c5cncnc5C5CC5)C4)C3)C2)cnn1 (single isomer, unassigned) [Compound 419]",9.85,8.30
"CC(C)[C@H]([C@H]1C[C@@H](Nc2ccnc3[nH]c(=O)ccc23)C1)N1CC2(CCN(c3ncnnc3Oc3ccc(F)cc3-c3cncnc3C3CC3)C2)C1 (single isomer, unassigned) [Compound 420]",~9.41,6.54
"CNC(=O)Nc1cc(N[C@H]2C[C@@H](C(C(C)C)N3CC4(CCN(c5ncnnc5Oc5ccc(F)cc5-c5cncnc5C5CC5)C4)C3)C2)ccn1 (single isomer, unassigned) [Compound 421]",9.89,> 8.74
"CC(C)[C@H]([C@H]1C[C@@H](Nc2ncnc3[nH]ncc23)C1)N1CC2(CCN(c3ncnnc3Oc3ccc(F)cc3-c3cncnc3C3CC3)C2)C1 (single isomer, unassigned) [Compound 422]",~9.57,7.06
"Cc1cc(-c2cnnc(N[C@H]3C[C@@H]([C@@H](C(C)C)N4CC5(CCN(c6ncnnc6Oc6ccc(F)cc6-c6cncnc6C6CC6)C5)C4)C3)c2)[nH]n1 (single isomer, unassigned) [Compound 423]",9.74,8.05
"CC(C)[C@H]([C@H]1C[C@@H](Nc2cnnc(-c3ccn[nH]3)c2)C1)N1CC2(CCN(c3ncnnc3Oc3ccc(F)cc3-c3cncnc3C3CC3)C2)C1 (single isomer, unassigned) [Compound 424]",9.77,8.40
"CC(C)C([C@H]1C[C@@H](Nc2cccc(CN(C)C)n2)C1)N1CC2(CCN(c3ncnnc3Oc3ccc(F)cc3-c3cncnc3C3CC3)C2)C1 (single isomer, unassigned) [Compound 425]",10.52,8.22
"Cc1cn2ccc(N[C@H]3C[C@@H](C(C(C)C)N4CC5(CCN(c6ncnnc6Oc6ccc(F)cc6-c6cncnc6C6CC6)C5)C4)C3)cc2n1 (single isomer, unassigned) [Compound 426]",10.05,> 8.74
"COC(=O)Nc1cc(N[C@H]2C[C@@H]([C@@H](C(C)C)N3CC4(CCN(c5ncnnc5Oc5ccc(F)cc5-c5cncnc5C5CC5)C4)C3)C2)ccn1 (single isomer, unassigned) [Compound 427]",~9.96,> 8.74
"CC(C)C([C@H]1C[C@@H](Nc2cccc(CN3CCOCC3)n2)C1)N1CC2(CCN(c3ncnnc3Oc3ccc(F)cc3-c3cncnc3C3CC3)C2)C1 (single isomer, unassigned) [Compound 428]",10.05,7.80
"CC(=O)Nc1nccc(N[C@H]2C[C@@H]([C@@H](C(C)C)N3CC4(CCN(c5ncnnc5Oc5ccc(F)cc5-c5cncnc5C5CC5)C4)C3)C2)c1F (single isomer, unassigned) [Compound 429]",9.77,8.48
"Cc1nnc(-c2cc(N[C@H]3C[C@@H]([C@@H](C(C)C)N4CC5(CCN(c6ncnnc6Oc6ccc(F)cc6-c6cncnc6C6CC6)C5)C4)C3)ccn2)[nH]1 (single isomer, unassigned) [Compound 430]",9.96,8.47
"CC(C)[C@H]([C@H]1C[C@@H](Nc2cnc3nn[nH]c3c2)C1)N1CC2(CCN(c3ncnnc3Oc3ccc(F)cc3-c3cncnc3C3CC3)C2)C1 (single isomer, unassigned) [Compound 431]",9.27,7.10
"CC(C)[C@H]([C@H]1C[C@@H](Nc2cc3nccn3cn2)C1)N1CC2(CCN(c3ncnnc3Oc3ccc(F)cc3-c3cncnc3C3CC3)C2)C1 (single isomer, unassigned) [Compound 433]",9.82,8.70
"C[C@@H]([C@H]1C[C@@H](N)C1)N1CC2(CCN(c3ncnnc3Oc3ccc(F)cc3-c3cncnc3C3CC3)C2)C1 (single isomer, unassigned) [Compound 441]",9.04,6.17
"Cc1nnc(-c2cnc(N[C@H]3C[C@@H]([C@@H](C(C)C)N4CC5(CCN(c6ncnnc6Oc6ccc(F)cc6-c6cncnc6C6CC6)C5)C4)C3)s2)o1 (single isomer, unassigned) [Compound 445]",9.72,8.22
"CC(C)[C@H]([C@H]1C[C@@H](Nc2n[nH]c3ncccc23)C1)N1CC2(CCN(c3ncnnc3Oc3ccc(F)cc3-c3cncnc3C3CC3)C2)C1 (single isomer, unassigned) [Compound 448]",9.74,8.34

# More lines, now with the values ahead:
pIC50 [1],pIC50 [2],Compound
10.00,7.68,"CC(=O)Nc1cc(N[C@H]2C[C@@H](C(C(C)C)N3CC4(CCN(c5ncnnc5Oc5ccc(F)cc5-c5cncnc5C5CC5)C4)C3)C2)cnn1 (single isomer, unassigned) [Compound 414]"
10.30,8.74,"CNC(=O)c1cnc(N[C@H]2C[C@@H]([C@@H](C(C)C)N3CC4(CCN(c5ncnnc5Oc5ccc(F)cc5-c5cnc(C)nc5C5CC5)C4)C3)C2)s1 (single isomer, unassigned) [Compound 417]"
9.77,7.66,"CNC(=O)c1cc(N[C@H]2C[C@@H]([C@@H](C(C)C)N3CC4(CCN(c5ncnnc5Oc5ccc(F)cc5-c5cncnc5C5CC5)C4)C3)C2)cnn1 (single isomer, unassigned) [Compound 432]"
9.80,8.40,"CNC(=O)c1coc(N[C@H]2C[C@@H](C(C(C)C)N3CC4(CCN(c5ncnnc5Oc5ccc(F)cc5-c5cncnc5C5CC5)C4)C3)C2)n1 (single isomer, unassigned) [Compound 438]"
9.41,7.60,"CNC(=O)c1nnc(N[C@H]2C[C@@H]([C@@H](C(C)C)N3CC4(CCN(c5ncnnc5Oc5ccc(F)cc5-c5cncnc5C5CC5)C4)C3)C2)o1 (single isomer, unassigned) [Compound 439]"
9.68,8.40,"CNC(=O)c1nnc(N[C@H]2C[C@@H]([C@@H](C(C)C)N3CC4(CCN(c5ncnnc5Oc5ccc(F)cc5-c5cncnc5C5CC5)C4)C3)C2)s1 (single isomer, unassigned) [Compound 442]"
10.10,8.40,"CNC(=O)c1sc(N[C@H]2C[C@@H]([C@@H](C(C)C)N3CC4(CCN(c5ncnnc5Oc5ccc(F)cc5-c5cncnc5C5CC5)C4)C3)C2)nc1C (single isomer, unassigned) [Compound 443]"
~10.00,8.15,"CC(C)[C@H]([C@H]1C[C@@H](Nc2ncc(C(N)=O)s2)C1)N1CC2(CCN(c3ncnnc3Oc3ccc(F)cc3-c3cncnc3C3CC3)C2)C1 (single isomer, unassigned) [Compound 446]"
9.82,8.40,"CC(C)[C@H]([C@H]1C[C@@H](Nc2nnc(N)s2)C1)N1CC2(CCN(c3ncnnc3Oc3ccc(F)cc3-c3cncnc3C3CC3)C2)C1 (single isomer, unassigned) [Compound 447]"
10.05,8.08,"CNC(=O)c1ncc(N[C@H]2C[C@@H]([C@@H](C(C)C)N3CC4(CCN(c5ncnnc5Oc5ccc(F)cc5-c5cncnc5C5CC5)C4)C3)C2)s1 (single isomer, unassigned) [Compound 449]"
10.10,8.15,"CNC(=O)c1cccc(N[C@H]2C[C@@H](C(C(C)C)N3CC4(CCN(c5ncnnc5Oc5ccc(F)cc5-c5cncnc5C5CC5)C4)C3)C2)n1 (single isomer, unassigned) [Compound 450]"
9.82,7.96,"CNC(=O)c1cc(N[C@H]2C[C@@H]([C@@H](C(C)C)N3CC4(CCN(c5ncnnc5Oc5ccc(F)cc5-c5cncnc5C5CC5)C4)C3)C2)ccn1 (single isomer, unassigned) [Compound 451]"
